Consider one molecule from patent US20230233736A1, “ANTIMICROBIAL FORMULATIONS COMPRISING SILICONE” (AMICOAT AS, priority 2020, published 2023).

Structures are written as SMILES. Where only a bound is given, the exact number is not on record here.

One data set concerns Bacteroides fragilis. In words: MIC microbroth dilution (CLSI). More on the design: unit not given beside the values. The note with it: ATCC 25285; SBB. It counts as cell-based. On the technique in general: Dilution methods test growth across graded concentrations, often in twofold steps.
Another data set has as its system E. coli (5067-6002). In words: Modified AATCC 100 method, silicone membrane valves. The note with it: low loading, original surface (A*).
The subject of another data set is Cryptococcus neoformans. As to the kind of experiment: MIC microbroth dilution (CLSI). In kind it is cell-based. As to conditions: G.R. Micro collection.
The next data set deals with Eggerthella lenta. As to the kind of experiment: MIC microbroth dilution (CLSI). It counts as cell-based. More on the design: unit not given beside the values. As to conditions: ATCC 43055; SBB.
The subject of data set [1] is Staphylococcus aureus, strain ATCC 25923. The note with it: S. aureus ATCC 25923.
The next data set concerns Streptococcus pyogenes. As to the kind of experiment: Murine skin infection model, topical treatment. In kind it is in vivo, mice. As to conditions: FIG. 2. How it is done:
The skin of mice was infected with Staphylococcus aureus or Streptococcus pyogenes and subsequently given a total of three treatments at three hourly intervals. Three hours after the last treatment, skin biopsies were collected and the number of colony forming units (CFUs) present in the skin sample was determined. Results are shown in FIGS. 1 and 2, expressed as the number of colony forming units per mouse.
In experiment 2 (FIG. 2), compound 2 was applied in two different concentrations, as either a 1% or a 2% gel. A placebo gel and a known antibacterial “bactroban” were used as controls.
The skin of mice was infected with Staphylococcus aureus or Streptococcus pyogenes and subsequently given a total of three treatments at three hourly intervals. Three hours after the last treatment, skin biopsies were collected and the number of colony forming units (CFUs) present in the skin sample was determined. Results are shown in FIGS. 3, 4 and 5 expressed as the number of colony forming units per mouse.
In experiment 2 (FIG. 4), compound 7 was applied in two different concentrations, as either a 1% or a 2% gel. A placebo gel and a known antibacterial “bactroban (mupericin)” were used as controls.

A further data set relates to trypsin. In words: in vitro. As to conditions: pH 8.6. In kind it is in vitro ADME. As for the experimental part:
Each peptide was dissolved in a 0.1 M NH4HCO3 buffer (pH 6.5) to yield a final peptide concentration of 1 mg/ml. A trypsin solution was prepared by dissolving 1 mg of trypsin in 50 ml 0.1 M NH4HCO3 buffer (pH 8.2). For the stability determination, 250 μl freshly made trypsin solution and 250 μl peptide solution were incubated in 2 ml of 0.1 M NH4HCO3 buffer (pH 8.6) at 37° C. on a rocking table. Aliquots of 0.5 ml were sampled at different time intervals, diluted with 0.5 ml water:acetonitrile (60:40 v/v) containing 1% TFA and analysed by RP-HPLC as described above. Samples without trypsin addition taken at 0 h and after 20 h at 37° C. were used as negative controls. Integration of the peak area at 254 nm for samples taken during the first 5 hours of the assay was used to generate the […].

One may read the half-life as the time needed for the level to fall by half in the phase considered. Take `CC(C)(C)c1cc(C(C)(C)C)c2[nH]c(C(C)(C)C)c(CC(NC(=O)C(N)CCCNC(=N)N)C(=O)NC(CCCNC(=N)N)C(=O)NCCc3ccccc3)c2c1` (stereo not drawn) [Compound 2]: the MIC with Bacteroides fragilis was 64; against Cryptococcus neoformans it was 4; against Eggerthella lenta it was 32; in data set [1], less than 3 µM. Also, the “CFU (samples containing AMC-109)” value in the data set with E. coli (5067-6002) came to 0. Besides, in the data set on S. epidermidis, the “minimum inhibitory concentration (MIC)” value was in the range of 2 to 4 µg/mL. For the same molecule, in the data set with Streptococcus pyogenes, the “number of CFUs, 2% gel compared with 1% gel” value is listed as “more effective than the gel containing only 1% of compound 2”. Further, the “number of colony forming units (CFU) in skin biopsy” value with Streptococcus pyogenes (1% or 2% gel, three treatments at three hourly intervals) is on record as “more effective at reducing the number of CFUs than the placebo gel or the bactroban”. The half-life at 0.1 mg/ml in the data set with trypsin is more than 1440 min.
